Assays:
[1] = biological target: T1, UCP2 (murine, residues 14-309) (Mus musculus, UniProt P70406); experiment: NMR titration, chemical shift perturbation; type: binding
T1 sequence (P70406 14-309): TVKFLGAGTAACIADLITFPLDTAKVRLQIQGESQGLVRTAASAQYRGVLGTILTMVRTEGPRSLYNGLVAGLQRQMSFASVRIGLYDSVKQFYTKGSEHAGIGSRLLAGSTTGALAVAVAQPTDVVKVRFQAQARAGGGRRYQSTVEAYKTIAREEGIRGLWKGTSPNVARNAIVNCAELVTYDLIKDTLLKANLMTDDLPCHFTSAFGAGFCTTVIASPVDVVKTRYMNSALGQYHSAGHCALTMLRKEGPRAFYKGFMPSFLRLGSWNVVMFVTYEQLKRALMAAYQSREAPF

[2] = biological target: T1, UCP2 (murine, residues 14-309); experiment: proteoliposome ASO− flipping assay; type: biochemical; settings: read-out: % inhibition at 100 μM

Row | Kd [1] | inhibition at 100 µM [2] | SMILES
1 | 600 ± 200 µM | – | CCCCCCCCCCCCCCCC(=O)O [C16-FA]
2 | – | ~95% | Nc1nc2c(ncn2[C@@H]2O[C@H](COP(=O)(O)OP(=O)(O)O)[C@@H](O)[C@H]2O)c(=O)[nH]1 [GDP]

From paper PMC4156518 (Cell metabolism, 2014)
